This is an account of results in article PMC8536830 (Current Biology, 2021).

pEC50: −log10 of the molar value.

Common to all, as to assay type: cell-based, C. elegans
One assay concerns the target T1, LGC-50:MOD-1(327-458) (Caenorhabditis elegans, UniProt P41849).
T1 construct: Plasmid: KSM: lgc-50:mod-1(327-458) (cDNA); MOD-1 residues 327-458 (M3/4 loop); expressed in transfected cells; host or cells: Xenopus laevis oocytes injected with cRNA (plasmid pIH125)
T1 sequence (P41849 with tags, fused parts or gaps): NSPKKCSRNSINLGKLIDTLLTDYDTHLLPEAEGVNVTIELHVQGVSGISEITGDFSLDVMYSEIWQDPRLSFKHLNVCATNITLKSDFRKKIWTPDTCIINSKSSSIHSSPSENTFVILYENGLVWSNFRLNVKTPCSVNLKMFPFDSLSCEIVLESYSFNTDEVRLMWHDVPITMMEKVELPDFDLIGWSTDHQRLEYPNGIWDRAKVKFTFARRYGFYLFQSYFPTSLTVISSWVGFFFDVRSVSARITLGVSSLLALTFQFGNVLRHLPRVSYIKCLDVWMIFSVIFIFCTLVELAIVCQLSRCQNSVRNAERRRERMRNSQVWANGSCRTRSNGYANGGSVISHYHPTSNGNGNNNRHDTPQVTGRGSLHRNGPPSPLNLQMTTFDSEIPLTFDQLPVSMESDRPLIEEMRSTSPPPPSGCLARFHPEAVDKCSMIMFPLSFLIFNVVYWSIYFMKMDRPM
Description: Two-electrode voltage clamp, 5-HT evoked dose response, LGC-50 chimera with MOD-1 M3/4 loop. The note with it: Xenopus oocytes, TEVC; LGC-50 with M3/4 loop of MOD-1. The protocol: To investigate, we exchanged the intracellular M3/4 loop of LGC-50 with the equivalent region of MOD-1 (LGC-50:MOD-1 327–458) and expressed the chimera in oocytes. […] The EC50 of the chimeric channels matched that of the recipient channel (Figures 5C and 5D).
(§1) Defolliculated Xenopus laevis oocytes were obtained from EcoCyte Bioscience (Dortmund, Germany) and maintained in ND96 (in mM: 96 NaCl, 1 MgCl2, 5 HEPES, 1.8 CaCl2, 2 KCl) solution at 16°C for 3-5 days.
5'-capped cRNA was synthesized in vitro using the T3 mMessage mMachine transcription kit according to manufacturer’s protocol (Thermo Fischer Scientific, CA, USA). […]
(§2) Two-electrode voltage clamp recordings were carried out using the Robocyte2 recording system or a manual TEVC set up, using an OC-725D amplifier (Multi Channel Systems, Reutlingen, Germany) and paired with a custom-made recording chamber and agar bridges from reference and bath electrodes. […] Data was recorded using WinWCP or RoboCyte2 control software, manual data was filtered at 10 Hz.
(§3) Dose response curves were calculated from the peak current during a 10 s agonist stimulation in ND96 solution, with a 60 s ND96 wash in between doses. […] Normalized dose response data was fitted to a nonlinear curve using a four parameters variable slope and the EC50 and Hill slope was calculated. […] Kinetic measurements were calculated from a 60 s agonist perfusion. […]

The target in the next assay is T2, LGC-50 Δ363-397 (Caenorhabditis elegans, UniProt P41849, DEL363-397).
T2 construct: Plasmid: KSM: lgc-50 (cDNA, Δ363 - 397); expressed in transfected cells; host or cells: Xenopus laevis oocytes injected with cRNA (plasmid pJML138)
As to the kind of experiment: Two-electrode voltage clamp, 5-HT evoked dose response, LGC-50 deletion mutant Δ363-397. The method, then: (§4) To identify such domains, we tested the effects of deletion mutations in the LGC-50 M3/4 loop (Figure 5A).
as §1
(§5) 5'-capped cRNA was synthesized in vitro using the T3 mMessage mMachine transcription kit according to manufacturer’s protocol (Thermo Fischer Scientific, CA, USA). RNA was then purified using the GeneJET RNA purification kit (Thermo Fischer Scientific, CA, USA) prior to cRNA injection. […]
as §2, §3

A further assay deals with T3, LGC-50 Δ363-379 (Caenorhabditis elegans, UniProt P41849, DEL363-379).
T3 construct: Plasmid: KSM: lgc-50 (cDNA, Δ363-379); expressed in transfected cells; host or cells: Xenopus laevis oocytes injected with cRNA (plasmid pIH142)
As to the kind of experiment: Two-electrode voltage clamp, 5-HT evoked dose response, LGC-50 deletion mutant Δ363-379. The method, then: as §4, §1, §5, §2, §3

T3 sequence (P41849 other isoform, or with tags, fused parts or gaps DEL363-379): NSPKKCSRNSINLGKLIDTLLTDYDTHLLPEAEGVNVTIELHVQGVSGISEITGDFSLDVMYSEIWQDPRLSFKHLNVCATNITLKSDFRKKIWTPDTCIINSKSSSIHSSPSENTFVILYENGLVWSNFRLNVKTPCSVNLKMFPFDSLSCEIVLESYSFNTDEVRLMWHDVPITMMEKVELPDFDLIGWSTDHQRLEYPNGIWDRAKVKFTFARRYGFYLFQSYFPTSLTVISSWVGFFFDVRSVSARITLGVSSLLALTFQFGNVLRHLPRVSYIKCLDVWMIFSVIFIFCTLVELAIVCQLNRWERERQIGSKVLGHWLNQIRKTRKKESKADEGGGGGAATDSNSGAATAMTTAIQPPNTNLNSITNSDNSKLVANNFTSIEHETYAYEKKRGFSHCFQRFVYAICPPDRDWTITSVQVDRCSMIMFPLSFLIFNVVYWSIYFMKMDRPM
T2 sequence (P41849 other isoform, or with tags, fused parts or gaps DEL363-397): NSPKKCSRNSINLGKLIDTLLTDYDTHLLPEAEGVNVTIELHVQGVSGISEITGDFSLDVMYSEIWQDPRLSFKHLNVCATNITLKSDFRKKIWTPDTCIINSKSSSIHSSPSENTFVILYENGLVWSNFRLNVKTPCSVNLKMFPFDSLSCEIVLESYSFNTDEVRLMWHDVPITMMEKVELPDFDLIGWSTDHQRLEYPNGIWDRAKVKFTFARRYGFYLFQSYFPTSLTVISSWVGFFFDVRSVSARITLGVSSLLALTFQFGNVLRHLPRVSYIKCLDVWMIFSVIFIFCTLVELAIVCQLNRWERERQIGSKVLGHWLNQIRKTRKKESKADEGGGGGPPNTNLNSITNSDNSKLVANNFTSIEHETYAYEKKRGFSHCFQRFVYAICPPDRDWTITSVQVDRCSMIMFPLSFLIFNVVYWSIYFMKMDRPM

With `NCCc1c[nH]c2ccc(O)cc12` [5-HT, serotonin], the negative-log EC50 (pEC50) is 6.07 at LGC-50:MOD-1(327-458), 6.03 at LGC-50 Δ363-397 and 6.03 at LGC-50 Δ363-379.
